Measurements taken from patent EP1984353B1, “AURORA KINASE MODULATORS AND METHOD OF USE” (Amgen, Inc, priority 2006, dated 2007).
Where two headings read alike, the source gives them in different places.

How the values were obtained:
AuroraA-TPX2 = target: T1, AuroraA-TPX2 (Homo sapiens, UniProt O14965); assay: AuroraA-TPX2 Homogeneous Time Resolved Fluorescent (HTRF) kinase assay; format: biochemical; details: average, read-out: AurA/TP X2_ IC50_IP (Avg)
T1 construct: 20 µL of AuroraA-TPX2 KD GST; GST
T1 sequence (O14965 133-383 limits assumed): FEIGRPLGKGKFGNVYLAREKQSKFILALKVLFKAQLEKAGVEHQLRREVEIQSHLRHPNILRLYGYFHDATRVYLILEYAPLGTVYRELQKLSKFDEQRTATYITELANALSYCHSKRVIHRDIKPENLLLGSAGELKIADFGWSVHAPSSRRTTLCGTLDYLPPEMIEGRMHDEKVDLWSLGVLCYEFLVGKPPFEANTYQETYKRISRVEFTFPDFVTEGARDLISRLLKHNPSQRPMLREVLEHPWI
T1 sequence (Q9ULW0 1-43 partner limits assumed): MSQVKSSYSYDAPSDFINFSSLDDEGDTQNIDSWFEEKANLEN
Method in brief: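 HTRF read-out: europium anti-phosphoPLK antibody (0.02 nM) plus streptavidin-APC detect phosphorylated biotin-PLK after EDTA stop and overnight equilibration. Kinase step runs about 120 min with Aurora-A/TPX2, ATP and roughly 1 µM PLK peptide at pH 7.5 HEPES buffer with Mg2+ and DTT.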

AuroraB = target: T2, AuroraB (Homo sapiens, UniProt Q96GD4); assay: AuroraB Homogeneous Time Resolved Fluorescent (HTRF) kinase assay; format: biochemical; details: average, read-out: AurB_ _IC50_IP (Avg)
T2 construct: 20 µL of AuroraB FL His; His
T2 sequence (Q96GD4 whole entry): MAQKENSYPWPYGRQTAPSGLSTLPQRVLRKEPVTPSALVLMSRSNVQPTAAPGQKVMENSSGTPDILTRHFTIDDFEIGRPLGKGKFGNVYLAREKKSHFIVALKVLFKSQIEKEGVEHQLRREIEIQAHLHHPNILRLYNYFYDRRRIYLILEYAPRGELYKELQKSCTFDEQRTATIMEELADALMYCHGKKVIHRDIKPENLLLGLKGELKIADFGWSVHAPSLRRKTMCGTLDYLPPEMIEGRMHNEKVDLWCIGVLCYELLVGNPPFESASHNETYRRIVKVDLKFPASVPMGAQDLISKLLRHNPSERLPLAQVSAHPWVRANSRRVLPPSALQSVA
Method in brief: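 HTRF read-out: after EDTA stop and ~60 min with europium anti-phospho-H3 antibody and streptavidin-APC, 655/615 nm ratio reports phosphorylation. Reaction: 400 pM AuroraB FL His, 23 µM ATP (at Km(app)), 0.1 µM biotin-Histone H3 peptide, 50 mM HEPES pH 7.5, MgCl/MnCl, ~90 min.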

[1] = tested on: phosphorylation of Histone H3; assay: HeLa cell 1-hour phospho-histone assay; format: cell-based; details: Homo sapiens, HeLa, 1 h, HeLa cells, 1 hour, average, read-out: pHH3 EC50_IP (Avg)
Procedure: HeLa cell 1-hour phospho-histone assay
The purpose of this assay is to test the inhibitory effect of Aurora compounds with respect to phosphorylation of Histone H3 in the cellular context. HeLa cells (9x10^4/well) are plated in black 96-well flat-bottom tissue culture plates and incubated for 40 hours prior to compound addition. Compounds are serially diluted in DMSO, followed by dilution into MEM containing […] HEPES; 10ul/well of diluted compounds are added to cells (0.5% DMSO final). Cells are incubated for 1 hour at 37 °C in 5% CO2. Cells are then fixed with 3.7% formaldehyde for 10 minutes, washed with wash buffer (1% goat serum and 0.1% Tween 20 in PBS), then permeabilized with 0.5% Triton X in PBS for 15 minutes. After washing with wash buffer, cells are incubated with primary antibody (Upstate #06-507 anti-phospho-histone (Ser 10) antibody (pHH3) for 1 hour at 10ug/ml. After 2 washes with wash buffer, cells are incubated with secondary antibody (Molecular Probes #A11034 goat anti-rabbit Alexa-488 for 1 hour at 1ug/ml + Hoechst 33342 nuclear dye at 1ug/ml (Molecular Probes). Cells are washed 2 times with wash buffer, and buffer replaced with PBS. Plates are scanned on the Cellomics Array Scan (6 fields, ~2000 cells/well) and % of cells that are pHH3 positive were calculated using the Cellomics algorithm.

[2] = given as numbers, unit inferred

IC50 (AuroraA-TPX2; given as class symbols)	IC50 (AuroraB; given as class symbols)	EC50 ([1]; given as class symbols)	IC50 (AuroraA-TPX2; [2])	IC50 (AuroraB; [2])	EC50 [1, 2]	Compound
500 to 2500 nM	500 to 2500 nM	500 to 2500 nM				Nc1nccc(-c2cccnc2Oc2ccc(Nc3nnc(-c4ccccc4)cc3O)cc2)n1 [compound 263, 3-((4-((3-(2-amino-4-pyrimidinyl)-2-pyridinyl)oxy)phenyl)amino)-6-phenyl-4-pyridazinol]
≤ 100 nM	≤ 100 nM	≤ 100 nM				Nc1nccc(-c2cccnc2Oc2ccc(Nc3nnc(C4CCCCC4)c4ccccc34)cn2)n1 [compound 274, N-(6-((3-(2-amino-4-pyrimidinyl)-2-pyridinyl)oxy)-3-pyridinyl)-4-cyclohexyl-1-phthalazinamine]
			29.9 nM	7.4 nM	282 nM	Nc1nccc(-c2cccnc2Oc2ccc(Nc3nnc(N4CCCC(F)C4)c4ccccc34)cc2)n1 (stereo not drawn) [compound 278, N-(4-((3-(2-amino-4-pyrimidinyl)-2-pyridinyl)oxy)phenyl)-4-(3-fluoro-1-piperidinyl)-1-phthalazinamine]
100 to 500 nM	≤ 100 nM	100 to 500 nM				CN1CCN(CCCNc2cc(-c3cccnc3Oc3ccc(Nc4nnc(-c5ccccc5)c5ccccc45)cc3)ccn2)CC1 [compound 279, N-(3-(4-methyl-1-piperazinyl)propyl)-2-((4-((4-phenyl-1-phthalazinyl)amino)phenyl)oxy)-3,4'-bipyridin-2'-amine]
≤ 100 nM	≤ 100 nM	100 to 500 nM				Cc1cc(-c2ccccc2)nnc1Nc1ccc(Oc2ncccc2-c2ccnc(NCCCN3CCN(C)CC3)n2)nc1 [compound 280, 4-methyl-N-(6-((3-(2-((3-(4-methyl-1-piperazinyl)propyl)amino)-4-pyrimidinyl)-2-pyridinyl)oxy)-3-pyridinyl)-6-phenyl-3-pyridazinamine]
			20.4 nM	6.1 nM	170 nM	O=C1Cc2c(-c3cccnc3Oc3ccc(Nc4nnc(-c5ccccc5)c5ccccc45)cc3)ccnc2N1 [compound 281, 4-(2-((4-((4-phenyl-1-phthalazinyl)amino)phenyl)oxy)-3-pyridinyl)-1,3-dihydro-2H-pyrrolo[2,3-b]pyridin-2-one]
≤ 100 nM	≤ 100 nM	100 to 500 nM				Cc1cc(-c2ccccc2)nnc1Nc1ccc(Oc2ncccc2-c2ccnc3c2CC(=O)N3)cc1 [compound 282, 4-(2-((4-((4-methyl-6-phenyl-3-pyridazinyl)amino)phenyl)oxy)-3-pyridinyl)-1,3-dihydro-2H-pyrrolo[2,3-b]pyridin-2-one]
100 to 500 nM	≤ 100 nM	500 to 2500 nM				CN(C)Cc1cccc(-c2nnc(Nc3ccc(Oc4ncccc4-c4ccnc(N)n4)cc3)c3ccccc23)c1 [compound 299, N-(4-((3-(2-amino-4-pyrimidinyl)-2-pyridinyl)oxy)phenyl)-4-(3-((dimethylamino)methyl)phenyl)-1-phthalazinamine]
100 to 500 nM	100 to 500 nM	100 to 500 nM				Cc1n[nH]cc1-c1cccnc1Oc1ccc(Nc2nnc(-c3ccccc3)c3ccccc23)cc1 [compound 300, N-(4-((3-(3-methyl-1H-pyrazol-4-yl)-2-pyridinyl)oxy)phenyl)-4-phenyl-1-phthalazinamine]
			5.5 nM	3.1 nM	166 nM	Cc1ccc(-c2nnc(Nc3ccc(Oc4ncccc4-c4c[nH]nc4N)cc3)c3ccccc23)cc1 [compound 301, N-(4-((3-(3-amino-1H-pyrazol-4-yl)-2-pyridinyl)oxy)phenyl)-4-(4-methylphenyl)-1-phthalazinamine]
≤ 100 nM	≤ 100 nM	500 to 2500 nM				Cc1cc(-c2ccccc2)nnc1Nc1ccc(Oc2ncccc2-c2c[nH]nc2N)cc1 [compound 302, N-(4-((3-(3-amino-1H-pyrazol-4-yl)-2-pyridinyl)oxy)phenyl)-4-methyl-6-phenyl-3-pyridazinamine]
			3.2 nM	16.6 nM	729 nM	Nc1n[nH]cc1-c1cccnc1Oc1ccc(Nc2nnc(Cc3ccccc3)c3ccccc23)cc1 [compound 303, N-(4-((3-(3-amino-1H-pyrazol-4-yl)-2-pyridinyl)oxy)phenyl)-4-(phenylmethyl)-1-phthalazinamine]
